Patent US5798365A, “Substituted quinoline derivatives, a process for their preparation, and their use” (Hoechst Aktiengesellschaft, priority 1994, dated 1998)
≈ marks a conversion by molar mass, not a printed value. Where two headings read alike, the source gives them in different places.

Experiments:
[1] = target: T1, HIV reverse transcriptase (Human immunodeficiency virus type 1 group M subtype B, UniProt P04585); experiment: Inhibition of HIV reverse transcriptase, scintillation proximity assay (SPA); assay type: biochemical; conditions: RT-SPA, 60 min, 37° C., read-out: Reverse Transcriptase Asaay IC-50 (converted)
T1 construct: purchased HT-Biotechnology LTD, Cambridge, UK; host or cells: E. coli
Protocol: Investigation of the ability of the substances to inhibit the HIV reverse transcriptase
The activity of the reverse transcriptase (RT) was measured by means of a scintillation proximity assay (SPA).
The reagent kit for the RT-SPA was obtained from Amersham/Buchler (Braunschweig). The RT enzyme (originating from HIV and cloned in E. coli) was provided by HT-Biotechnology LTD, Cambridge, UK.
The test was carried out in accordance with the supplier's (Amersham) methods manual--with the following modifications:
bovine serum albumin was added to the assay buffer to a final concentration of 0.5 mg/ml.
The test was carried out in Eppendorf reaction tubes using a mixture volume of […].
The supplier's RT concentrate (5000 U/ml) was diluted in 20 mM tris-HCl buffer; pH 7.2; 30% glycerol to an activity of 15 U/ml.
The assay mixtures were incubated for 60 min (at 37° C.).
After the reaction had been stopped and "developed" using the bead suspension, […] of assay mixture was transferred into 4.5 ml of 10 mM tris-HCl buffer; pH 7.4; 0.15M NaCl
and the tritium activity was measured in a β counter.
In order to carry out a preliminary test for inhibitor activity, the substances were dissolved in DMSO (stock solution concentration=1 mg/ml) and tested at 10^-1, 10^-2, 10^-3, etc. dilutions in DMSO.
In order to determine the IC50 values, the stock solutions of inhibitor were further diluted in 50 mM tris-HCl buffer, pH 8, and tested at suitable concentrations.
The concentration giving rise to 50% inhibition of the enzyme was ascertained from the graphic depiction of RT activity versus log Cinh.

HIV = experiment: Testing preparations against HIV in cell culture (infected human donor lymphocytes); assay type: cell-based; conditions: for MIC: Human immunodeficiency virus 1, 72 h, lowest concentration without giant cells; for IC50: Human immunodeficiency virus 1, Lymphocyte, 72 h
Protocol: Testing preparations against HIV in cell culture
Description of the method
The complete medium additionally contains 20% foetal calf serum and 40 IU/ml recombinant interleukin 2.
Lymphocytes which have been isolated from fresh donor blood by means of Ficoll® gradient centrifugation are cultured, at 37° C. for 36 h and under 5% CO2, in complete medium in the added presence of […] phytohemagglutinin (Wellcome). After the addition of 10% DMSO, the cells are frozen at a cell density of 5×10^6 and stored in liquid nitrogen. For the experiment, the cells are thawed, washed in RPMI medium and cultured for 3-4 days in complete medium.
The preparations for testing were dissolved in DMSO at a concentration of 16.7 mg/ml and diluted to 1 mg/ml in complete medium. 0.4 ml of medium was initially introduced in 24-well multiwell plates. After 0.1 ml of the dissolved preparation had been added to the upper row of the plate, a geometrical dilution series was produced by transferring 0.1 ml on each occasion. Preparation-free controls always contained 0.4 ml of complete medium containing 0.5% DMSO.
Lymphocyte cultures having a cell count of 5×10^5 cells/ml were infected by adding a 1/50 volume of the supernatant from lymphocyte cultures infected with HIV. The titer of these culture supernatants was determined, by end point dilution, to be 1-5×10^6 infectious units/ml. After incubating at 37° C. for 30 min, the infected lymphocytes were centrifuged off and taken up once again in the same volume of medium. 0.6 ml of this cell suspension was added to each of the wells in the test plate. The assay mixtures were incubated at 37° C. for 3 days.
The infected cell cultures were examined under the microscope for the presence of giant cells, which indicate that the virus is multiplying actively in the culture. The lowest preparation concentration at which no giant cells appeared was defined as the inhibitory concentration against HIV (MIC value). As a control, the presence of HIV antigen in the supernatants from the culture plates was determined using a test for HIV antigen in accordance with the manufacturer's (Organon) instructions.

[2] = HIV-infected lymphocytes, 3 days, 37° C.
[3] = HIV-infected lymphocytes, 3 days, 37° C., read-out: IC-50

Compound | IC50 ([1]; molar value in parentheses) | IC50 [1] | MIC (HIV; [2]) | IC50 (HIV; [3]) | also measured
CCC1(CC)C(=S)Nc2ccccc2C1=CCC(C)C [Compound 53] | 44 nM | 45.2 nM | 0.02 µg/mL (≈ 0.0696 µM) | ~0.002 µg/mL (≈ 0.00696 µM) | 
CCCC=C1c2cc(OC)ccc2NC(=S)C1(C)C [Compound 42, E/Z-4-n-butylene-3,4-dihydro-3,3-dimethyl-6-methoxyquinolin-2(1H)-thione] | 9 nM | 9.44 nM | < 0.008 µg/mL | 0.002 µg/mL (≈ 0.00726 µM) | 
C=CC=C1c2cc(Cl)ccc2NC(=O)C1(C)C [Compound 13] |  |  | > 0.2 µg/mL | 0.04 µg/mL (≈ 0.161 µM) | 
CCCC=C1c2cc(OC(F)(F)F)ccc2NC(=S)C1(C)C [Compound 36] |  |  | < 0.2 µg/mL | ~0.01 µg/mL (≈ 0.0304 µM) | 
CCC1(CC)C(=O)Nc2ccccc2C1=CCC(C)C [Compound 52] | 43 nM | 44.2 nM | 0.02 µg/mL (≈ 0.0737 µM) | ~0.004 µg/mL (≈ 0.0147 µM) | 
C=CC=C1c2cc(Cl)ccc2NC(=S)C1(C)C [Compound 14] | 18 nM | 15.2 nM | < 0.008 µg/mL | 0.005 µg/mL (≈ 0.019 µM) | 
CCOc1ccc2c(c1)C(=CCC(C)C)C(C)(C)C(=S)N2 [Compound 59] | 46 nM |  | < 0.02 µg/mL | ~0.008 µg/mL (≈ 0.0264 µM) | IC50 ([1]; unit as printed for compound 59): 46.1 nM
COc1ccc2c(c1)C(=CC(C)C)C(C)(C)C(=S)N2 [Compound 61] | 62 nM | 61.7 nM | 0.02 µg/mL (≈ 0.0726 µM) | ~0.004 µg/mL (≈ 0.0145 µM) | 
CCOc1ccc2c(c1)C(=CCC(C)C)C(C)(C)C(=O)N2 [Compound 58] |  |  | < 0.1 µg/mL |  | IC50 (HIV; HIV-infected lymphocytes, 3 days, unit as printed for compound 58, read-out: IC-50): ~0.02 µg/mL (≈ 0.0696 µM)
CC/C=C1\c2cc(Cl)ccc2NC(=S)C1(C)C [Compound 71] | 5 nM | 3.76 nM | 0.0016 µg/mL (≈ 0.00602 µM) |  | 
CCCC=C1c2ccccc2NC(=O)C12CCCC2 [Compound 6, E/Z-4-n-butylene-3,3-cyclopentylidene-3,4-dihydroquinolin-2(1H)-one] | 113 nM | 113 nM |  |  | 
CCOc1ccc2c(c1)C(=CC(C)C)C(C)(C)C(=S)N2 [Compound 47] |  |  | < 0.08 µg/mL | ~0.015 µg/mL (≈ 0.0518 µM) | 
CC1(C)C(=S)Nc2ccc(F)cc2C1=C1CCCC1 [Compound 143] |  |  | > 0.008 µg/mL | < 0.008 µg/mL | 
CCCC=C1c2cc(OC)ccc2NC(=O)C1(C)C [Compound 41, E/Z-4-n-butylene-3,4-dihydro-3,3-dimethyl-6-methoxyquinolin-2(1H)-one] |  |  | 0.2 µg/mL (≈ 0.771 µM) | ~0.2 µg/mL (≈ 0.771 µM) | 
CCCC=C1c2ccccc2NC(=O)C1(CC)CC [Compound 48] | 54 nM | 54.4 nM | < 0.08 µg/mL | ~0.01 µg/mL (≈ 0.0389 µM) | 
CCC/C=C1/c2cc(Cl)ccc2NC(=O)C1(C)C [Compound 74, Z-4-n-butylene-6-chloro-3,4-dihydro-3,3-dimethylquinolin-2(1H)-one] |  |  | 0.04 µg/mL (≈ 0.152 µM) |  | IC50 (HIV; HIV-infected lymphocytes, 3 days, unit as printed for compound 74, read-out: IC-50): 0.02 µg/mL (≈ 0.0758 µM)
CC(C)C=C1c2cc(Cl)ccc2NC(=O)C1(C)C [Compound 17] |  |  | < 0.02 µg/mL | ~0.04 µg/mL (≈ 0.152 µM) | 
CC(C)C=C1c2ccccc2NC(=S)C1(C)C [Compound 24] | 270 nM | 270 nM |  |  | 
CC(C)CC=C1c2ccccc2NC(=S)C12CCCC2 [Compound 70] | 21 nM | 21 nM | 0.02 µg/mL (≈ 0.0701 µM) | ~0.003 µg/mL (≈ 0.0105 µM) | 
CCCC=C1c2ccccc2NC(=O)C12CCC2 [Compound 5] | 479 nM | 479 nM | 0.2 µg/mL (≈ 0.829 µM) | 0.04 µg/mL (≈ 0.166 µM) | 
CCC=C1c2cc(OC)ccc2NC(=O)C1(C)C [Compound 44] |  |  | 0.2 µg/mL (≈ 0.815 µM) | 0.06 µg/mL (≈ 0.245 µM) | 
C=CC=C1c2cc(OC)ccc2NC(=S)C1(C)C [Compound 68] |  | ~38.6 nM |  |  | 
COc1ccc2c(c1)C(=CCC(C)C)C(C)(C)C(=O)N2 [Compound 66] | 70 nM | 69.5 nM | < 0.1 µg/mL |  | IC50 (HIV; HIV-infected lymphocytes, 3 days, unit as printed for compound 66, read-out: IC-50): ~0.01 µg/mL (≈ 0.0366 µM)

Compound | IC50 ([1]; molar value in parentheses) | IC50 [1] | MIC (HIV; [2]) | IC50 (HIV; [3]) | also measured
COc1ccc2c(c1)C(=C1CCCC1)C(C)(C)C(=S)N2 [Compound 140] |  | 17.4 nM | 0.2 µg/mL (≈ 0.696 µM) | 0.006 µg/mL (≈ 0.0209 µM) | 
CC=C1c2ccccc2NC(=S)C12CCCC2 [Compound 38] |  |  | < 0.2 µg/mL | ~0.08 µg/mL (≈ 0.329 µM) | 
CCCC=C1c2ccccc2NC(=S)C12CCCC2 [Compound 8, E/Z-4-n-butylene-3,3-cyclopentylidene-3,4-dihydroquinolin-2(1H)-thione] | 16 nM | 14.7 nM | 0.008 µg/mL (≈ 0.0295 µM) |  | IC50 (HIV): 0.0016 µg/mL (≈ 0.00589 µM)
CCCC=C1c2ccccc2NC(=S)C1(C)C [Compound 28] | 24 nM | 23.6 nM | 0.008 µg/mL (≈ 0.0326 µM) | ~0.01 µg/mL (≈ 0.0408 µM) | 
CC/C=C1/c2cc(Cl)ccc2NC(=S)C1(C)C [Compound 72] |  |  | < 0.008 µg/mL |  | 
CCC=C1c2cc(Cl)ccc2NC(=S)C1(C)C [Compound 4] | 8 nM | 7.52 nM | 0.0016 µg/mL (≈ 0.00602 µM) | < 0.00032 µg/mL | 
CC(C)CC=C1c2cc(Cl)ccc2NC(=O)C1(C)C [Compound 19] | 37 nM | 37.1 nM |  | 0.008 µg/mL (≈ 0.0288 µM) | 
CCC=C1c2cc(Cl)ccc2NC(=O)C1(C)C [Compound 3] |  | 108 nM | < 0.08 µg/mL | 0.03 µg/mL (≈ 0.12 µM) | 
CCCCCC=C1c2cc(OC)ccc2NC(=S)C1(C)C [Compound 64] | 109 nM | 109 nM |  |  | 
CCC=C1c2ccccc2NC(=O)C1(CC)CC [Compound 50] |  |  | < 0.1 µg/mL | ~0.01 µg/mL (≈ 0.0411 µM) | 
CCCCCC=C1c2ccccc2NC(=S)C12CCC2 [Compound 32] |  |  | 0.2 µg/mL (≈ 0.701 µM) | ~0.08 µg/mL (≈ 0.28 µM) | 
CCC/C=C1\c2cc(Cl)ccc2NC(=S)C1(C)C [Compound 75, E-4-n-butylene-6-chloro-3,4-dihydro-3,3-dimethylquinolin-2(1H)-thione] |  | < 3.57 nM | 0.004 µg/mL (≈ 0.0143 µM) | ~0.0018 µg/mL (≈ 0.00643 µM) | 
CCCC=C1c2cc(OCC)ccc2NC(=S)C1(C)C [Compound 55] | 31 nM | 31.1 nM | < 0.08 µg/mL | ~0.006 µg/mL (≈ 0.0207 µM) | 
CC(C)CC=C1c2ccccc2NC(=O)C12CCCC2 [Compound 67] | 91 nM | 89.1 nM | < 0.1 µg/mL | ~0.02 µg/mL (≈ 0.0742 µM) | 
CCCC=C1c2cc(OCC)ccc2NC(=O)C1(C)C [Compound 54] |  |  | 0.1 µg/mL (≈ 0.366 µM) | 0.05 µg/mL (≈ 0.183 µM) | 
COc1ccc2c(c1)C(=C1CCCC1)C(C)(C)C(=O)N2 [Compound 138] |  | 225 nM | > 0.2 µg/mL | 0.03 µg/mL (≈ 0.111 µM) | 
CC(C)=C1c2cc(Cl)ccc2NC(=S)C1(C)C [Compound 10] | 116 nM | 117 nM |  |  | IC50 (HIV; HIV-infected lymphocytes, 3 days, unit as printed for compound 10, read-out: IC-50): 0.025 µg/mL (≈ 0.0941 µM)
C=CC=C1c2ccccc2NC(=S)C1(C)C [Compound 30] |  |  | < 0.2 µg/mL | ~0.02 µg/mL (≈ 0.0872 µM) | 
CCCCCC=C1c2cc(Cl)ccc2NC(=S)C1(C)C [Compound 16] |  |  | < 0.2 µg/mL | ~0.03 µg/mL (≈ 0.0974 µM) | 
CC(C)C=C1c2ccccc2NC(=S)C12CCC2 [Compound 34] |  |  | < 0.04 µg/mL | ~0.01 µg/mL (≈ 0.0388 µM) | 
CCC=C1c2cc(Cl)ccc2NC(=O)C12CCCC2 [Compound 77] |  |  | 0.2 µg/mL (≈ 0.725 µM) | ~0.03 µg/mL (≈ 0.109 µM) | 
COc1ccc2c(c1)C(=CC(C)C)C(C)(C)C(=O)N2 [Compound 43] |  |  | 0.2 µg/mL (≈ 0.771 µM) | 0.05 µg/mL (≈ 0.193 µM) | 
C=C1c2cc(Cl)ccc2NC(=S)C1(C)C [Compound 1] |  |  | 1 µg/mL (≈ 4.21 µM) | ≥ 0.04 µg/mL | 
